SMILES strings stand for the structures. pIC50: −log10 of the molar value. Bounds are passed on as bounds.

IC50 data for four molecules are collected here from ChEMBL document CHEMBL5120912, “Structure Revision of Trichomide D by Total Synthesis” (J Nat Prod, 2022).

What all share (assay type): functional, cell-based
In assay [1] the test system is MCF7. Nature of the assay: Cytotoxicity against human MCF7 cells assessed as inhibition of cell growth incubated for 72 hrs by MTT assay. Conditions: MCF7, 72 h.
For the next assay, the system named is HeLa S3. Nature of the assay: Cytotoxicity against human HeLa S3 cells assessed as inhibition of cell growth incubated for 72 hrs by MTT assay. The following applies: HeLa S3, 72 h.
The subject of assay [2] is MCF7. Nature of the assay: Cytotoxicity against human MCF7 cells assessed as inhibition of cell growth incubated for 24 hrs by MTT assay. Conditions: MCF7, 24 h. (In general: Formazan colour is commonly taken as a measure of viable cells.)
The next assay concerns SW480. Nature of the assay: Cytotoxicity against human SW480 cells assessed as inhibition of cell growth incubated for 24 hrs by MTT assay. The following applies: SW480, 24 h.
In a further assay the test system is HL-60. The experiment in a line: Cytotoxicity against human HL-60 cells assessed as inhibition of cell growth incubated for 24 hrs by MTT assay. Conditions: HL-60, 24 h.

As usually defined, the pIC50 is the negative decadic logarithm of the IC50, by convention in mol/L. Regarding `CC[C@H](C)[C@@H]1NC(=O)[C@@H]2[C@@H](C)CCN2C(=O)[C@@H](C[C@H](O)CO)OC(=O)CCNC(=O)[C@H](C)N(C)C(=O)[C@H]([C@@H](C)CC)N(C)C1=O`, the pIC50 in the assay on MCF7 [1] and in the assay on HeLa S3 was < 5.00 throughout.

As to `CC[C@H](C)[C@@H]1NC(=O)[C@@H]2[C@@H](C)CCN2C(=O)[C@@H](C[C@@H](O)CCl)OC(=O)CCNC(=O)[C@H](C)N(C)C(=O)[C@H]([C@@H](C)CC)N(C)C1=O`, the pIC50 in the assay on MCF7 [1] was 5.55; in the assay with HeLa S3, 6.40; in the assay with MCF7 [2], 7.10; in the assay with SW480, 6.97; with HL-60 it was 6.83.

Consider `CC[C@H](C)[C@@H]1NC(=O)[C@@H]2[C@@H](C)CCN2C(=O)[C@@H](C[C@H](O)CCl)OC(=O)CCNC(=O)[C@H](C)N(C)C(=O)[C@H]([C@@H](C)CC)N(C)C1=O`, for which the pIC50 in the assay with MCF7 [1] was 6.47; with HeLa S3 it was 7.51.

Regarding `CO[C@@]12[C@H](COC(N)=O)C3=C(C(=O)C(C)=C(N)C3=O)N1C[C@@H]1N[C@@H]12` [MITOMYCIN], the pIC50 in the assay with MCF7 [1] was 5.74; in the assay with HeLa S3, 6.28.
